Key:
Experiment in all cases: relative viability (nuclei count vs DMSO), 5 days (fraction); higher = more cells survive
[1] = compound: c1ccc2c(CCNc3ccc(Nc4ccncc4)cc3)c[nH]c2c1 [Serdemetan] + COc1cccc2cc(-c3nc([C@H]4CC[C@H](C(=O)O)CC4)n4ncnc(N)c34)[nH]c12 [OSI-027] (partner 0.5 µM)
How it was run: (§1)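 Lung cancer cell lines, seeded in 1536-well plates, were treated the following day by pin tool with a single drug or with five library-drug doses (not always all listed) in √10 steps on top of a fixed anchor-drug dose. Cells were fixed and nuclei stained in one step after 5 days, and nuclei were counted. Relative viability is the nuclei count for treated wells divided by that for vehicle wells, reported as medians of duplicate plates.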

[2] = compound: C1CC(C2=C(C1)C3=C(N2)C=CC(=C3)Cl)C(=O)N [Selisistat] + CCNC(=O)c1noc(-c2cc(C(C)C)c(O)cc2O)c1-c1ccc(CN2CCOCC2)cc1 [Luminespib] (partner 0.01 µM)
How it was run: as §1

[3] = compound: C1CC(C2=C(C1)C3=C(N2)C=CC(=C3)Cl)C(=O)N [Selisistat] + CS(=O)(=O)N1CCN(Cc2cc3nc(-c4cccc5[nH]ncc45)nc(N4CCOCC4)c3s2)CC1 [Pictilisib] (partner 1 µM)
How it was run: as §1

[4] = compound: c1ccc2c(CCNc3ccc(Nc4ccncc4)cc3)c[nH]c2c1 [Serdemetan] + NC(=O)Nc1cc(-c2cccc(F)c2)sc1C(=O)N[C@H]1CCCNC1 [AZD7762] (partner 0.2 µM)
How it was run: as §1

Cell Line	relative viability ([1]; first compound 0.04 µM)	relative viability ([1]; first compound 0.1265 µM)	relative viability ([1]; first compound 0.4 µM)	relative viability ([1]; first compound 1.265 µM)	relative viability ([1]; first compound 4 µM)	relative viability ([2]; first compound 0.4 µM)	relative viability ([2]; first compound 1.265 µM)	relative viability ([2]; first compound 4 µM)	relative viability ([2]; first compound 12.65 µM)	relative viability ([2]; first compound 40 µM)	relative viability ([3]; first compound 0.4 µM)	relative viability ([3]; first compound 1.265 µM)	relative viability ([3]; first compound 4 µM)	relative viability ([3]; first compound 12.65 µM)	relative viability ([3]; first compound 40 µM)	relative viability ([4]; first compound 0.04 µM)	relative viability ([4]; first compound 0.1265 µM)	relative viability ([4]; first compound 0.4 µM)	relative viability ([4]; first compound 1.265 µM)	relative viability ([4]; first compound 4 µM)
LK-2	0.205	0.23	0.216	0.193	0.214	0.193	0.161	0.182	0.198	0.188	0.645	0.502	0.575	0.499	0.456	0.454	0.304	0.357	0.269	0.251
LOU-NH91	0.703	0.681	0.456	0.692	0.784	0.269	0.322	0.348	0.336	0.406	0.538	0.496	0.485	0.532	0.512	0.768	0.746	–	–	0.79
LU99A	0.282	0.313	0.275	0.216	0.29	0.258	0.214	0.301	0.291	0.223	0.336	0.35	0.404	0.373	0.299	0.315	0.347	0.212	0.117	0.14
LXF-289	0.802	0.847	0.811	0.691	0.729	0.601	0.565	0.696	0.686	0.673	0.845	0.812	0.633	0.747	0.85	1.07	1.11	1.07	0.982	0.846
NCI-H23	0.636	0.702	0.607	0.43	0.531	0.188	0.203	–	0.204	0.197	0.562	0.462	–	0.567	0.51	0.274	0.235	0.261	–	0.208
NCI-H322M	0.52	0.56	0.681	0.509	0.422	0.875	0.82	0.562	0.868	0.812	0.562	0.525	–	0.549	0.604	0.565	0.573	0.533	0.524	0.43
NCI-H358	0.725	0.816	0.969	0.487	0.536	0.435	0.341	–	0.469	0.471	0.402	0.361	–	0.408	0.395	0.525	0.5	0.455	0.335	0.381
NCI-H441	0.581	0.802	0.622	0.347	0.441	0.294	0.382	0.349	0.339	0.344	0.511	0.44	0.405	0.547	0.48	1.28	1.19	1.05	0.858	0.548
NCI-H460	0.61	0.691	0.641	0.342	0.0861	0.0268	0.0346	0.0301	0.0377	0.0409	0.439	0.282	0.164	0.317	0.33	0.461	0.547	0.571	0.229	0.141
NCI-H596	0.888	0.699	0.614	0.494	0.519	0.981	0.938	1.08	0.668	0.775	0.372	0.411	0.391	0.434	0.434	1.17	1.19	1.08	0.922	1.16
NCI-H647	0.609	0.634	0.751	0.585	0.648	0.119	0.205	0.146	0.111	0.15	0.488	–	0.289	0.422	0.361	0.556	0.382	0.396	0.41	0.285
NCI-H650	0.471	0.502	0.578	0.456	0.584	0.874	0.772	0.894	0.77	0.665	0.746	–	1.11	0.594	0.807	0.854	0.977	1.2	1.02	0.933
NCI-H727	0.69	0.681	0.567	0.466	0.499	0.389	0.231	–	0.268	0.349	0.354	0.435	–	–	0.423	0.562	0.437	0.526	0.443	0.481
NCI-H838	0.434	0.416	0.461	0.387	0.463	0.313	0.332	0.349	0.392	0.311	0.48	0.514	0.39	0.489	0.446	0.866	0.94	0.887	0.849	0.882
NCI-H1355	0.465	0.452	0.35	0.35	0.382	0.739	0.834	0.596	0.683	0.774	0.406	0.427	–	0.5	0.514	0.631	0.512	0.623	0.469	0.484
NCI-H1395	0.526	0.637	0.734	0.651	0.418	0.871	0.682	0.702	0.66	0.455	0.617	0.609	0.564	0.656	0.557	0.42	0.398	0.415	0.369	0.384
NCI-H1437	0.872	0.865	0.868	0.585	0.729	1.1	1.12	1.09	1.1	0.922	0.48	0.439	0.202	0.503	0.455	1.13	1.12	1.1	0.979	0.876
